For data set [1] the following is noted: statement with literature citation; cited from earlier work.
The test system of data set [2] is DF-BM354. Kind of data set: In vivo treatment of orthotopic HER2-positive BCBM patient-derived xenograft DF-BM354 (bioluminescence imaging, survival). More on the design: species or system mice. The following applies: BKM120 PO 30 mg/kg QD; RAD001 PO 7.5 mg/kg QD; MEK162 PO 15 mg/kg; GNE-317 PO 40 mg/kg QD. How it is done:
Luciferase-expressing tumors were then propagated in mice.
The signals were analyzed with CareStream MI Software.
All compounds were purchased from Haoyuan ChemExpress Co.
GNE-317 obtained from Genetcch was dissolved in 0.5% methylcellulose/0.2% Tween 80 and given oral once/day at 40 mg/kg.
(In general: In xenograft studies the graft and the host belong to different species.)

Data set [3] has as its system PI3K pathway signaling (pAKT, pS6RP, p4EBP1), Ki67 and cleaved caspase-3 in DF-BM355 tumors. Kind of data set: Pharmacodynamic IHC / Western blot analysis of treated DF-BM355 tumors. The following applies: IHC after 4 days of treatment. (Immunoblotting shows a protein as a band on a membrane.)
Protocol: Diaminobenzidine (DAB), brightfield staining was performed according to standard protocols using DAB EnVision+™ System (Dako) on paraffin sections. Briefly five micron thick sections were deparaffinized with xylene, followed by gradation washes in 100%, 95%, 80% ethyl alcohol before performing heat antigen retrieval in 10 mM sodium citrate buffer (pH 6.0) for 20 minutes. Subsequently, sections were treated with peroxidase block (Dako) for ten minutes followed by overnight incubation at 4° C. with the following primary antibodies: polyclonal PTEN (Cell Signaling #9559), pS6RP-Ser235/236 (Cell Signaling #2211), p4EBP1-Thr37/46 (Cell Signaling #2855), or cleaved caspase-3 (Cell Signaling #9664) from Cell Signaling; estrogen receptor (ER) (ThermoScientific SP1) or HER2 (ThermoScientific SP3) from ThermoScientific; or progesterone receptor (PR) (Dako PgR 636), CK7 (Dako), GFAP (Dako #z0334), OLIG2 (Dako), or monoclonal mouse anti-Ki67 (Dako MIB-1 or Vector lab #VP K-451) from Dako or Vector lab. […]
Ki67 and cleaved caspase-3 indexes were calculated as a percentage of positive cells in 4-5 random areas of each sample. Images were captured at 40× or 60× magnification and quantifications of Ki67 and cleaved caspase-3 immunoreactivity were performed using the ImmunoRatio plugin provided in the Image J software. […]

SMILES strings stand for the structures.

For the compound `COC1(c2sc3c(N4CCOCC4)nc(-c4cnc(N)nc4)nc3c2C)COC1` [GNE-317, 5-(6-(3-methoxyoxetan-3-yl)-7-methyl-4-morpholinothieno[3,2-d]pyrimidin-2-yl)pyrimidin-2-amine], in data set [1], the blood-brain barrier penetration result is given as “effectively crossing the blood brain barrier”. The “therapeutic response / tumor growth of DF-BM354 (bioluminescence imaging, survival)” value (“therapeutic response / tumor growth” for short) in data set [2] is reported as “marked regression”.

Take `Nc1cc(C(F)(F)F)c(-c2cc(N3CCOCC3)nc(N3CCOCC3)n2)cn1` [BKM120, 5-(2,6-dimorpholin-4-ylpyrimidin-4-yl)-4-(trifluoromethyl)pyridin-2-amine]: the blood-brain barrier penetration entry in data set [1] is listed as “permeates the blood-brain barrier”. Besides, the “therapeutic response / tumor growth” value in data set [2] is recorded as “neither BKM120 nor RAD001 monotherapy had meaningful effects”. Moreover, the “number of Ki67-positive cells (cell proliferation) in DF-BM355 tumors” value in data set [3] is on record as “did not decrease”.

As to `CO[C@H]1C[C@@H]2CC[C@@H](C)[C@@](O)(O2)C(=O)C(=O)N2CCCC[C@H]2C(=O)O[C@H]([C@H](C)C[C@@H]2CC[C@@H](OCCO)[C@H](OC)C2)CC(=O)[C@H](C)/C=C(\C)[C@@H](O)[C@@H](OC)C(=O)[C@H](C)C[C@H](C)/C=C/C=C/C=C/1C` [RAD001], in data set [1], the blood-brain barrier penetration entry was “demonstrated blood-brain barrier (BBB) penetrance”. In addition, the “therapeutic response / tumor growth” value in data set [2] is listed as “neither BKM120 nor RAD001 monotherapy had meaningful effects”.

Values taken from patent publication US11318139B2, “Methods for treating brain metastases using combinations of anti-P13K and anti-mTOR agents” (Dana-Farber Cancer Institute, Inc., priority 2016, dated 2022).
